Measured values taken from patent US9751919B2, “Antimicrobial compositions comprising a hyaluronic acid binding peptide and a β-lactam antibiotic” (priority 2012, dated 2017).
Several values for one entry are separate records, joined by “and”; a condition that tells them apart may be missing. Equal values may be shown once. Entries after “also recorded” stand apart in the source; their conditions may differ. Marks after values point to notes of the source that are not given here.

Tests used:
[1] = test system: CA-MRSA; experiment: MIC (CLSI broth dilution), agent alone; format: cell-based, Staphylococcus aureus; details: agent alone
Experimental: (§1) VISA (strains 92, 95 and 96), VRSA (strains 105 and 106) and E. coli (strain 69717) isolates were also tested. One MSSA was used as a control. All MICs were assessed using CLSI guidelines. Also assessed was the activity of cefazolin, ceftriazone, meropenem, and a piperacillin/tazobactam combination antibiotic. Minimum inhibitory concentration (MIC) is the lowest concentration of an antimicrobial that will inhibit the visible growth of a microorganism after incubation.
(§2) Antimicrobial Susceptibility Testing: A custom designed panel of antimicrobials was created. […] These agents were obtained as laboratory grade powders from their respective manufacturers. Stock solutions were prepared and dilutions made as described by the Clinical Laboratory Standards Institute (2005 CLSI). Following two subcultures from frozen stock the MICs of the antimicrobial agents for the isolates were determined by the CLSI 2005 approved broth macrodilution method. Briefly, test tubes containing doubling antibiotic dilutions (2 ml per tube) of cation adjusted Mueller-Hinton broth (eg. for Enterobacteriaceae) with or without lysed horse blood (2-5% V/V) [eg. for S. pneumoniae] were inoculated to achieve a final concentration of approximately 5×10^5 CFU/ml and incubated in ambient air for 24 hours prior to reading. Colony counts were performed periodically to confirm inocula. Quality control was performed every two weeks using a variety of ATCC QC organisms including; S. aureus 29213, E. faecalis 29212, E. coli 25922 and P. aeruginosa 27853.
(§3) One MSSA was used as a control. All MICs were assessed using CLSI guidelines.
(§4) One MS SA and ATCC reference strains were used as controls. All MICs were assessed using CLSI guidelines.

[2] = test system: HA-MRSA; experiment: MIC (CLSI broth dilution), agent alone; format: cell-based, Staphylococcus aureus; details: agent alone
Experimental: as §1, §2, §3, §4

[3] = test system: MSSA; experiment: MIC (CLSI broth dilution), agent alone; format: cell-based, Staphylococcus aureus; details: MSSA 79333, agent alone
Experimental: as §1, §2, §3, §4

[4] = test system: VRSA; experiment: MIC (CLSI broth dilution), agent alone; format: cell-based, Staphylococcus aureus; design: unit not given beside the values
Experimental: as §1
(§5) Antimicrobial Susceptibility Testing: A custom designed panel of antimicrobials was created. The panel included: PEP35, penicillin, piperacillin/tazobactam, cefazolin, ceftriaxone, meropenem, clarithromycin, clindamycin, gentamicin, amikacin, vancomycin, ciprofloxacin, levofloxacin, moxifloxacin, linezolid, trimethoprim/sulfamethoxazole and doxycycline. These agents were obtained as laboratory grade powders from their respective manufacturers. Stock solutions were prepared and dilutions made as described by the Clinical Laboratory Standards Institute (2005 CLSI). Following two subcultures from frozen stock the MICs of the antimicrobial agents for the isolates were determined by the CLSI 2005 approved broth macrodilution method. Briefly, test tubes containing doubling antibiotic dilutions (2 ml per tube) of cation adjusted Mueller-Hinton broth (eg. for Enterobacteriaceae) with or without lysed horse blood (2-5% V/V) [eg. for S. pneumoniae] were inoculated to achieve a final concentration of approximately 5×10^5 CFU/ml and incubated in ambient air for 24 hours prior to reading. Colony counts were performed periodically to confirm inocula. Quality control was performed every two weeks using a variety of ATCC QC organisms including; S. aureus 29213, E. faecalis 29212, E. coli 25922 and P. aeruginosa 27853. For all antimicrobials as well as PEP35, CLSI criteria were used.
as §3

[5] = test system: VISA; experiment: MIC (CLSI broth dilution), agent alone; format: cell-based, Staphylococcus aureus; design: unit: µg/mL
Experimental: as §1, §5, §3

[6] = test system: E. coli; experiment: MIC (CLSI broth dilution), agent alone; format: cell-based, Escherichia coli; details: agent alone
Experimental: as §1, §5, §4

[7] = test system: CA-MRSA; experiment: Antibiotic MIC with fixed concentration of peptide; format: cell-based, Staphylococcus aureus; details: versus CA-MRSA; Table 13
Experimental: as §3, §4

[8] = test system: HA-MRSA; experiment: Antibiotic MIC with fixed concentration of peptide; format: cell-based, Staphylococcus aureus; details: HA-MRSA strains; Table 13
Experimental: as §3, §4

[9] = test system: VRSA; experiment: Antibiotic MIC with fixed concentration of peptide; format: cell-based, Staphylococcus aureus; details: VISA and VRSA; Table 13
Experimental: as §3

[10] = test system: MRSA, VISA, VRSA and E. coli; experiment: MIC, agent alone, panel statement; format: cell-based; details: versus MRSA, VISA, VRSA and E. coli
Experimental: as §1, §5

[11] = test system: MRSA, VISA, VRSA and E. coli; experiment: Checkerboard assay, panel statement; format: cell-based; details: with β-lactams versus MRSA, VISA, VRSA and E. coli
Experimental: (§6) Checkerboard assays were carried out as described by Bonapace et al.
(§7) Diagnostic Microbiology and Infectious Diseases 2002; 44:363-366. In brief, checkerboard assays were performed in 96 well microtitre trays using an 8-by-8 well configuration. […] 96-well custom designed microtitre plates contained 100 ul/well of cation adjusted Mueller-Hinton broth (eg. for Enterobacteriaceae) with or without lysed horse blood (2-5% V/V) [eg. for S. pneumoniae] and were inoculated to achieve a final concentration of approximately 5×10^5 CFU/ml and incubated in ambient air for 24 hours prior to reading. Colony counts were performed periodically to confirm inocula. Quality control was performed every two weeks using a variety of ATCC QC organisms including; S. pneumoniae 49619, S. aureus 29213, E. faecalis 29212, E. coli 25922 and P. aeruginosa 27853. […] All peptides were assessed for synergy with β-lactams and vancomycin. For all antimicrobials as well as the peptides, CLSI criteria were used.
(§8) The fractional inhibitory concentration index (FIC index) was used to interpret synergy, antagonism or additivity/indifference. FIC index=FIC of drug A+FIC of drug B where:
(§9) The FIC of drug A and drug B was calculated as follows, FIC drug A=MIC of drug A in combination/MIC of drug A alone and FIC of drug B=MIC of drug B in combination/MIC of drug B alone. Synergy was defined as FIC index ≦0.5, additivity/indifference defined as a FIC between 0.5 and 4 and antagonism defined as an FIC index >4.
The fractional inhibitory concentration index (FIC index) was used to interpret synergy, antagonism or additivity/indifference. FIC index=FIC of drug A+FIC of drug B where the FIC of drug A and drug B was calculated as follows, FIC drug A=MIC of drug A in combination/MIC of drug A alone and FIC of drug B=MIC of drug B in combination/MIC of drug B alone. Synergy was defined as FIC index ≦0.5, additivity/indifference defined as an FIC of between 0.5 and 4 and antagonism defined as an FIC index >4.

[12] = test system: E. coli; experiment: Checkerboard assay (FIC index); format: cell-based, Escherichia coli; details: antibiotic combined with PEP35
Experimental: as §6, §7, §8, §9
(§10) The checkerboard assays were carried out as described by Eliopoulos and Moellering (Chapter 9) in Antibiotic in Laboratory Medicine, Lorian Ed. 1996 as well as Bonapace et al. Diagnostic Microbiology and Infectious Diseases 2002; 44:363-366 and Bonapace et al. Diagnostic Microbiology and Infectious Diseases 2000; 38:43-50. In brief, checkerboard assays were performed in 96 well microtitre trays using an 8-by-8 well configuration. […] 96-well custom designed microtitre plates contained 100 ul/well of cation adjusted Mueller-Hinton broth (eg. for Enterobacteriaceae) with or without lysed horse blood (2-5% V/V) [eg. for S. pneumoniae] and were inoculated to achieve a final concentration of approximately 5×10^5 CFU/ml and incubated in ambient air for 24 hours prior to reading. Colony counts were performed periodically to confirm inocula. Quality control was performed every two weeks using a variety of ATCC QC organisms including; S. pneumoniae 49619, S. aureus 29213, E. faecalis 29212, E. coli 25922 and P. aeruginosa 27853. For all antimicrobials as well as PEP35, CLSI criteria was used.
(§11) The FIC of drug A and drug B is calculated as follows, FIC drug A=MIC of drug A in combination/MIC of drug A alone and FIC of drug B=MIC of drug B in combination/MIC of drug B alone. Synergy is defined as FIC index ≦0.5, additivity/indifference FIC >0.5-4 and antagonism FIC index >4.
(§12) Antimicrobials used included PEP35, cefazolin, ceftriaxone, vancomycin, linezolid, tigecycline and daptomycin versus Gram-positive cocci and PEP35, gentamicin, levofloxacin, piperacillin/tazobactam, meropenem and colistin (Polymyxin E) versus Gram-negative bacilli. These agents were obtained as laboratory grade powders from their respective manufacturers. Stock solutions were prepared and dilutions made as described by the Clinical Laboratory Standards Institute (2005 CLSI).
Organisms included Gram-positive cocci (2 strains of each): Methicillin-susceptible Staphylococcus aureus (MSSA), community-associated (CA) and healthcare-associated (HA) methicillin-resistant Staphylococcus aureus (MRSA), vancomycin-intermediate Staphylococcus aureus (VISA), vancomycin-resistant Staphylococcus aureus (VRSA), methicillin-resistant Staphylococcus epidermidis (MRSE), Streptococcus pyogenes, Streptococcus agalactiae, Streptococcus pneumoniae, Enterococcus faecalis, Enterococcus faecium and vancomycin-resistant enterococcus (VRE). […]

[13] = test system: P. aeruginosa; experiment: Checkerboard assay (FIC index); format: cell-based, Pseudomonas aeruginosa; details: antibiotic combined with PEP35
Experimental: as §10, §8, §11, §12
(§13) Organisms included Gram-positive cocci (2 strains of each): Methicillin-susceptible Staphylococcus aureus (MSSA), community-associated (CA) and healthcare-associated (HA) methicillin-resistant Staphylococcus aureus (MRSA), vancomycin-intermediate Staphylococcus aureus (VISA), vancomycin-resistant Staphylococcus aureus (VRSA), methicillin-resistant Staphylococcus epidermidis (MRSE), Streptococcus pyogenes, Streptococcus agalactiae, Streptococcus pneumoniae, Enterococcus faecalis, Enterococcus faecium and vancomycin-resistant enterococcus (VRE). Gram-negative bacilli tested (2 strains of each) included: E. coli, Pseudomonas aeruginosa, Klebsiella pneumoniae, K. oxytoca, Enterobacter cloacae, P. mirabilis and Stenotrophomonas maltophilia. MIC testing, following two subcultures from frozen stock were determined by the CLSI 2005 approved broth microdilution method.

[14] = test system: K. pneumoniae; experiment: Checkerboard assay (FIC index); format: cell-based, Klebsiella pneumoniae; details: antibiotic combined with PEP35
Experimental: as §10, §8, §11, §12, §13

[15] = test system: K. oxytoca; experiment: Checkerboard assay (FIC index); format: cell-based, Klebsiella oxytoca; details: antibiotic combined with PEP35
Experimental: as §10, §8, §11, §12, §13

[16] = test system: E. cloacae; experiment: Checkerboard assay (FIC index); format: cell-based, Enterobacter cloacae; details: antibiotic combined with PEP35
Experimental: as §10, §8, §11, §12, §13

[17] = test system: P. mirabilis; experiment: Checkerboard assay (FIC index); format: cell-based, Proteus mirabilis; details: antibiotic combined with PEP35
Experimental: as §10, §8, §11, §12, §13

[18] = test system: S. maltophilia; experiment: Checkerboard assay (FIC index); format: cell-based, Stenotrophomonas maltophilia; details: antibiotic combined with PEP35; S. maltophilia 73062
Experimental: as §10, §8, §11, §12, §13

[19] = test system: P. mirabilis; experiment: MIC, agent alone (broth microdilution); format: cell-based, Proteus mirabilis; details: footnote to Table 12; P. mirabilis 80267 and 81569
Source text: as §13

## LKQKIKHVVKLKVVVKLRSQLAKKKQS (hybPEP35-1 conservative substitution human peptide variant) [human peptide variant of PEP35 with conservative substitutions]
[1]; CA-MRSA 69615 (USA400)
  MIC: 1024/1024
[1]; CA-MRSA 70857 (USA400)
  MIC: 1024/1024
[2]; HA-MRSA 70798 (USA100/800), in µg/mL
  MIC: > 2048 and 1024
[2]; HA-MRSA 77090 (USA100/800), in µg/mL
  MIC: 1024 and 512
[2]; HA-MRSA 77098 (USA100/800)
  MIC: ≧2048/2048^
[3]
  MIC: 128/128
[3]; in µg/mL
  MIC: 256
[4]; VRSA 105
  MIC: 128/128
[4]; VRSA 105, in µg/mL
  MIC: 256 and 128
[4]; VRSA 106, in µg/mL
  MIC: 256
[4]; VRSA 106, listed as hybPEP35, in µg/mL
  MIC: 128 and 256
[5]; VISA 92
  MIC: >2048/>2048
[5]; VISA 95
  MIC: >2048/2048
[5]; VISA 96, in µg/mL
  MIC: 1024
[5]; VISA 96, listed as hybPEP35, in µg/mL
  MIC: 1024 and 2048
[6]; E. coli 69716, listed as hybPEP35-1, in µg/mL
  MIC: 64
[6]; E. coli 69716, listed as hybPEP35, in µg/mL
  MIC: 128 and 64
[6]; E. coli 70752
  MIC: 64/64
[6]; E. coli 70752, in µg/mL
  MIC: 32
[7]
  synergy with β-lactams (in words): Strong synergy
[8]
  synergy with β-lactams (in words): weak synergy; also recorded: stronger synergy
[9]
  synergy with β-lactams (in words): mild to strong
[10]
  activity (in words): no activity; also recorded: not active
[11]
  synergistic activity (in words): synergistic activity

## colistin (Polymyxin E)
[12]; E. coli 69716
  Avg ΣFIC (range): 0.71 (0.31-1.06)
[12]; E. coli 70752
  Avg ΣFIC (range): 0.81 (0.31-1.25)
[13]; P. aeruginosa 70849
  Avg ΣFIC (range): 0.70 (0.28-1.12)
[13]; P. aeruginosa 71841
  Avg ΣFIC (range): 0.89 (0.53-1.25)
[14]; K. pneumoniae 70508
  Avg ΣFIC (range): 0.67 (0.31-1.06)
[14]; K. pneumoniae 77081
  Avg ΣFIC (range): 0.61 (0.18-1.06)
[15]; K. oxytoca 75316
  Avg ΣFIC (range): 0.41 (0.24-0.56) and 0.62 (0.18-1.06) and 0.65 (0.18-1.12)
[15]; K. oxytoca 76874
  Avg ΣFIC (range): 0.83 (0.31-2.03)
[16]; E. cloacae 80194
  Avg ΣFIC (range): 0.70 (0.31-1.12)
[16]; E. cloacae 83128
  Avg ΣFIC (range): 0.77 (0.5-1.06)
[17]; P. mirabilis 80267
  Avg ΣFIC (range): >1**
[17]; P. mirabilis 81569
  Avg ΣFIC (range): >1**
[18]
  Avg ΣFIC (range): 0.88 (0.53-1.25)
[19]
  MIC: COL MIC > 4096
